In ChEMBL document CHEMBL4387785, “Discovery of a C-8 hydroxychromene as a potent degrader of estrogen receptor alpha with improved rat oral exposure over GDC-0927” (Bioorg Med Chem Lett, 2019):

Columns and labels:
[1] = Dose normalized AUC in rat at 5 mg/kg, po administered as suspension; assay type: ADME, organism-based; settings: in vivo
[2] = in vivo; settings: rat, iv, 1 mg/kg
[3] = in vivo; settings: rat, po, 5 mg/kg
[4] = in vitro; settings: human, liver microsomes
[5] = in vitro; settings: rat, liver microsomes
[6] = in vitro; settings: human, hepatocytes
[7] = in vitro; settings: rat, hepatocytes
[8] = in vitro; settings: dog, MDCK
[9] = Oral bioavailability in rat at 1 mg/kg administered as suspension; assay type: ADME, organism-based; settings: in vivo
[10] = Dose normalized AUC in rat at 1 mg/kg, po administered as suspension; assay type: ADME, organism-based; settings: in vivo

Compound | AUC/dose [1] [µM·h] | clearance [2] [mL/min/kg] | bioavailability [3] [%] | CLhep predicted [4] [mL/min/kg] | CLhep predicted [5] [mL/min/kg] | CLhep predicted [6] [mL/min/kg] | CLhep predicted [7] [mL/min/kg] | Papp A→B [8] [×10⁻⁶ cm/s] | bioavailability [9] [%] | AUC/dose [10] [µM·h]
CC1=C(c2cccc(O)c2)[C@H](c2ccc(OCCN3CC(CF)C3)cc2)Oc2ccc(O)cc21 | 0.04 | 100 | 10 | 12 | 45 to 46 | 16 | 45 to 46 | 4.6 |  | 
CC1=C(c2ccc(F)cc2)[C@H](c2ccc(OCCN3CC(CF)C3)cc2)Oc2c(O)cccc21 |  |  |  | 9 | 27 |  |  |  |  | 
Oc1cccc(C2=Cc3cc(O)ccc3O[C@H]2c2ccc(OCCN3CC(CF)C3)cc2)c1 |  |  |  | 12 | 36 | 17 | 41 |  |  | 
CC1=C(c2ccc(F)cc2)[C@H](c2ccc(OCCN3CC(CF)C3)cc2)Oc2ccc(O)cc21 |  |  |  | 10 | 28 | 14 | 31 |  |  | 
CCC1=C(c2cccc(O)c2)[C@H](c2ccc(OCCN3CC(CF)C3)cc2)Oc2ccc(O)cc21 |  |  |  | 12 | 39 | 15 | 40 |  |  | 
CC1=C(c2cccc(O)c2)[C@H](c2ccc(OCCN3CC(CF)C3)cc2)Oc2c(O)cccc21 |  | 18 |  | 9 | 43 | 13 | 44 | 2.4 | 30 | 0.43
CC1=C(c2ccc(F)cc2)[C@H](c2ccc(OCCN3CC(CF)C3)cc2)Oc2cc(F)c(O)cc21 |  |  |  | 8 | 20 | 15 | 28 |  |  | 
